Experiments:
Pim-2 = Pim-2 (Homo sapiens (Human), UniProt Q9P1W9); assay: Pim enzyme assay (HTRF, 96-well), Pim-2; format: biochemical; conditions: full length recombinant Pim-2, biotinylated-BAD (S112) peptide, 10-point curve, 45 min RT, read-out: Pim-2 IC50 IP
Description: (§1) These cDNAs were used as templates in PCR reactions to produce full-length DNA clones of the PIMs. […] PCR products were digested with BclI and EcoRI for Pim-1 and BamHI and EcoRI for Pim-2 and ligated into a modified baculovirus transfer vector (pFastBac1) cleaved with BamHI and EcoRI. For bacterial expression, the same cleaved PCR products encoding Pim-1 or Pim-2 were ligated into a modified E. coli expression vector pET28(a) cleaved with BamHI and EcoRI. Amino-terminal hexahistidine tags followed by a thrombin cleavage site were previously added to the vectors using standard methods of molecular biology.
(§2) Recombinant baculoviruses expressing Pim-1 or Pim-2 were made using standard methods (Fastbac manual, Invitrogen, Carlsbad, Calif.). […] Cells were harvested by centrifugation and frozen at −80 C. For E. coli expression, cells carrying pET28-His6-Th-Pim-1 or pET28-His6-Th-Pim-2 were picked from a single colony and grown o/n in LB media. The o/n culture was used to inoculate a 2 liter flask with 500 mL media. This was grown o/n and used to inoculate 15-20 liters of Terrific Broth in a New Brunswick Scientific fermentor. The E. coli were grown at 37° C. to and OD600 >1.6. The temperature was dropped to 18° C. and o/n expression was induced with 0.5 mM IPTG. Cells were harvested by centrifugation and frozen at −80° C.
(§3) The slurry was centrifuged at 1,000×g for 5 min, the supernatant decanted, and the resin suspended in 40 mL of lysis wash buffer (lysis buffer at 0.75 M NaCl). This step was repeated 3× and the resin was transferred to a 2.5 cm glass column. Ten column volumes of wash buffer (0.05 M HEPES, pH 8.0, 0.1 M NaCl, 0.01 M 2-mercaptoethanol, 10%(w/v) glycerol) were applied to the resin followed by 10 column volumes of elution buffer (0.05 M HEPES, pH 8.0, 0.25 M NaCl, 0.01 M 2-mercaptoethanol, 10%(w/v) glycerol, 0.1 M imidazole). Fractions were analyzed by SDS-PAGE and those containing the protein of interest were pooled and concentrated. The concentrated protein was applied to an Amersham Superdex 75 (XK 26/60) column equilibrated in 0.025 M Tris-HCl, pH 7.5, 0.1 M NaCl, 0.01 M 2-mercaptoethanol, 10% (w/v) glycerol. […] Fractions containing the monomeric protein of interest were pooled, concentrated to ˜2 mg/mL, and stored at −80° C.
(§4) The phosphorylation of biotinylated-BAD (S112) peptide by full length recombinant Pim-1, Pim-2, or Pim-3 protein was detected with streptavidin:Allophycocyanin (APC) conjugate and a europium (Eu) labeled antibody directed against phosphorylated-BAD (S112). […] The fluorescence is directly proportional to the amount of phosphorylated BAD peptide present in the reaction. […] A reference compound was included on each assay plate in order to validate that plate; on one plate of every assay run, two additional reference compounds were included. The final buffer conditions were as follows: 60 mM Hepes, pH 7.0, 0.05% BSA, 2 mM DTT. Incubations were carried out at RT (22° C.) for 2 h for Pim-1, 1 hour and 30 min for Pim-3, and 45 min for Pim-2. The reaction was stopped by the addition of 3 mM EDTA, and fluorescence was measured by an HTRF® Rubystar microplate reader. For each plate, percent of control (POC) values were calculated for each well. Values for the IC50 IP were estimated using a standard 4-parameter logistic model.

Pim-1 = Pim-1 (Homo sapiens (Human), UniProt P11309); assay: Pim enzyme assay (HTRF, 96-well), Pim-1; format: biochemical; conditions: full length recombinant Pim-1, biotinylated-BAD (S112) peptide, 10-point curve, 2 h RT, read-out: Pim-1 IC50 IP
Sequence of Pim-1 (P11309 whole entry): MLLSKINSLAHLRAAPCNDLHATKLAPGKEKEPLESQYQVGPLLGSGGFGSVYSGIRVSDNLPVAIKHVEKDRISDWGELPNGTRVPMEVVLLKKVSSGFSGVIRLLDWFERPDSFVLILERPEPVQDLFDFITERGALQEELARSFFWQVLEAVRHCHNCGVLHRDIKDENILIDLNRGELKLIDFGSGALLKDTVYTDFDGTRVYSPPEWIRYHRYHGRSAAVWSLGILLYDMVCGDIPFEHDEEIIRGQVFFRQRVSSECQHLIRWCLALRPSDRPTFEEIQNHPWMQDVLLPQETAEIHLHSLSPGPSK
Description: as §1, §2, §3, §4

[1] = system: KMS-12-BM myeloma cell line; assay: Pim KMS-12 cell assay (phospho-BAD S112 / total BAD, MSD); conditions: Homo sapiens, KMS-12-BM, read-out: KMS-12-BM IC50 IP, KMS-12-BM cells, phospho-BAD (S112) vs total BAD, 1 hour 50 min with compound

Sequence of Pim-2 (Q9P1W9 whole entry): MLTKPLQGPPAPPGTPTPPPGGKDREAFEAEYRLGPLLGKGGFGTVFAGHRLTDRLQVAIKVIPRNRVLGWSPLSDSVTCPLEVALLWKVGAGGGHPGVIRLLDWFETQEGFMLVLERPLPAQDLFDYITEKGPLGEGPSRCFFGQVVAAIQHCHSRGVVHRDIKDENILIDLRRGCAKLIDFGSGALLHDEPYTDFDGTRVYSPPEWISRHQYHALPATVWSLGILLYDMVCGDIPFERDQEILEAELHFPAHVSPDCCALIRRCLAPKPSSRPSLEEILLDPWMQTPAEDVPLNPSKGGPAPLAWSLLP

SMILES	IC50 (Pim-2) [nM]	IC50 (Pim-1) [nM]	IC50 [1] [µM]
Cc1nc2cccc(-c3cc4c([nH]3)CCNC4=O)c2nc1N[C@H](C)C(N)=O [Example 128, (R)-2-((3-methyl-8-(4-oxo-4,5,6,7-tetrahydro-1H-pyrrolo[3,2-c]pyridin-2-yl)quinoxalin-2-yl)amino)propanamide]	222	204	
COC(=O)N(c1ccccc1)c1ccc2cccc(-c3cc4c([nH]3)CCNC4=O)c2n1 [Example 46, Methyl (8-(4-oxo-4,5,6,7-tetrahydro-1H-pyrrolo[3,2-c]pyridin-2-yl)-2-quinolinyl)phenylcarbamate]	125	58.1	
O=C1NCCc2[nH]c(-c3cccc4ccc(Nc5cccc(Cl)c5)nc34)cc21 [Example 40, 2-(2-((3-chlorophenyl)amino)-8-quinolinyl)-1,5,6,7-tetrahydro-4H-pyrrolo[3,2-c]pyridin-4-one]	14.3	1.8	
Cc1cccc(Oc2ccc3cccc(-c4cc5c([nH]4)CCNC5=O)c3n2)c1 [Example 43, 2-(2-(3-methylphenoxy)-8-quinolinyl)-1,5,6,7-tetrahydro-4H-pyrrolo[3,2-c]pyridin-4-one]	47.8	17.9	
O=C1NCCc2[nH]c(-c3cccc4ccc(OC5CCNCC5)nc34)cc21 [Example 81, 2-(2-(piperidin-4-yloxy)quinolin-8-yl)-6,7-dihydro-1H-pyrrolo[3,2-c]pyridin-4(5H)-one]	95.6	6	
N[C@@H]1CCC[C@H](Nc2ccc3cccc(-c4cc5c([nH]4)CCNC5=O)c3n2)C1 (single isomer, unassigned) [Example 121, 2-(2-((cis-3-aminocyclohexyl)amino)quinolin-8-yl)-6,7-dihydro-1H-pyrrolo[3,2-c]pyridin-4(5H)-one]	22.6	0.6	
O=C1NCCc2[nH]c(-c3cccc4ccc(-c5c(F)cccc5F)nc34)cc21 [Example 231, 2-(2-(2,6-difluorophenyl)quinolin-8-yl)-6,7-dihydro-1H-pyrrolo[3,2-c]pyridin-4(5H)-one]	91.9	8.1	
COC(=O)[C@@H](C)Nc1nc2c(-c3cc4c([nH]3)CCNC4=O)cccc2nc1C [Example 137, (R)-methyl 2-((3-methyl-8-(4-oxo-4,5,6,7-tetrahydro-1H-pyrrolo[3,2-c]pyridin-2-yl)quinoxalin-2-yl)amino)propanoate]	74.1	96.7	
Cc1nc2cccc(-c3cc4c([nH]3)CCNC4=O)c2nc1N1CCOCC1 [Example 133, 2-(2-methyl-3-morpholinoquinoxalin-5-yl)-6,7-dihydro-1H-pyrrolo[3,2-c]pyridin-4(5H)-one]	99.8	93.4	
COC(=O)[C@H](C)Nc1nc2c(-c3cc4c([nH]3)CCNC4=O)cccc2nc1C [Example 136, (S)-methyl 2-((3-methyl-8-(4-oxo-4,5,6,7-tetrahydro-1H-pyrrolo[3,2-c]pyridin-2-yl)quinoxalin-2-yl)amino)propanoate]	154	49.5	
Cc1nc2cccc(-c3cc4c([nH]3)CCNC4=O)c2nc1N[C@@H](C)C(N)=O [Example 129, (S)-2-((3-methyl-8-(4-oxo-4,5,6,7-tetrahydro-1H-pyrrolo[3,2-c]pyridin-2-yl)quinoxalin-2-yl)amino)propanamide]	227	99.3	
CCCNc1nc2c(-c3cc4c([nH]3)CCNC4=O)cccc2nc1C [Example 191, 2-(2-methyl-3-(propylamino)-5-quinoxalinyl)-1,5,6,7-tetrahydro-4H-pyrrolo[3,2-c]pyridin-4-one]	6.6		0.376

More lines, now with the values ahead:

IC50 (Pim-2) [nM]	IC50 (Pim-1) [nM]	IC50 [1] [µM]	SMILES
80.2	34		O=c1[nH]cnc2[nH]c(-c3cccc4ccc(Oc5ccccc5)nc34)cc12 [Example 17, 6-(2-phenoxyquinolin-8-yl)-3H-pyrrolo[2,3-d]pyrimidin-4(7H)-one]
182	29		C[C@H](Nc1ccc2cccc(-c3cc4c([nH]3)CCNC4=O)c2n1)c1ccccc1 [Example 112, (S)-2-(2-((1-phenylethyl)amino)quinolin-8-yl)-6,7-dihydro-1H-pyrrolo[3,2-c]pyridin-4(5H)-one]
166	42.1		COc1ccc(Cl)cc1-c1ccc2cccc(-c3cc4c([nH]3)CCNC4=O)c2n1 [Example 88, 2-(2-(5-chloro-2-methoxyphenyl)quinolin-8-yl)-6,7-dihydro-1H-pyrrolo[3,2-c]pyridin-4(5H)-one]
71.8	28.6		O=c1[nH]ccc2[nH]c(-c3cccc4ccc(Nc5ccccc5)nc34)nc12 [Example 189, 2-(2-(phenylamino)quinolin-8-yl)-1H-imidazo[4,5-c]pyridin-4(5H)-one 2,2,2-trifluoroacetate]
11	2		O=c1[nH]ccc2[nH]c(-c3cccc4ccc(Nc5c(F)cccc5Cl)nc34)cc12 [Example 12, 2-(2-((2-chloro-6-fluorophenyl)amino)quinolin-8-yl)-1H-pyrrolo[3,2-c]pyridin-4(5H)-one]
143	49.5		CS(=O)(=O)c1ccc(-c2ccc3cccc(-c4cc5c([nH]4)CCNC5=O)c3n2)c(F)c1 [Example 86, 2-(2-(2-fluoro-4-(methylsulfonyl)phenyl)quinolin-8-yl)-6,7-dihydro-1H-pyrrolo[3,2-c]pyridin-4(5H)-one]
46.1	10.6		Nc1ccc(-c2ccc3cccc(-c4cc5c([nH]4)CCNC5=O)c3n2)c(F)c1 [Example 91, 2-(2-(4-amino-2-fluorophenyl)quinolin-8-yl)-6,7-dihydro-1H-pyrrolo[3,2-c]pyridin-4(5H)-one]
35.3		4.1	CC1Cc2[nH]c(-c3cccc4ccc(Nc5ccccc5)nc34)cc2C(=O)N1 (single isomer, unassigned) [Example 33, 6-methyl-2-(2-(phenylamino)quinolin-8-yl)-6,7-dihydro-1H-pyrrolo[3,2-c]pyridin-4(5H)-one]
8.1	4.7		C=C(c1ccccc1)c1ccc2cccc(-c3cc4c([nH]3)CCNC4=O)c2n1 [Example 113, 2-(2-(1-phenylvinyl)quinolin-8-yl)-6,7-dihydro-1H-pyrrolo[3,2-c]pyridin-4(5H)-one]
38.1	25.3		O=C1NCCc2[nH]c(-c3cccc4ccc(-c5ccccc5)nc34)cc21 [Example 226, 2-(2-phenylquinolin-8-yl)-6,7-dihydro-1H-pyrrolo[3,2-c]pyridin-4(5H)-one]
80.9	19.8		Cc1cccc(C)c1Oc1ccc2cccc(-c3cc4c([nH]3)CCNC4=O)c2n1 [Example 101]
40.2	34.2		O=C1NCCc2[nH]c(-c3cccc4cnc(Oc5ccccc5)nc34)cc21 [Example 236, 2-(2-phenoxyquinazolin-8-yl)-6,7-dihydro-1H-pyrrolo[3,2-c]pyridin-4(5H)-one 2,2,2-trifluoroacetate]
15.8		8.81	O=C1NCCc2[nH]c(-c3cccc4ccc(Oc5cccc(O)c5)nc34)cc21 [Example 109, 2-(2-(3-hydroxyphenoxy)quinolin-8-yl)-6,7-dihydro-1H-pyrrolo[3,2-c]pyridin-4(5H)-one]

Reference: patent publication US9394297B2, “Amides as pim inhibitors” (AMGEN INC., priority 2012, dated 2016)
